Source: ChEMBL document CHEMBL5104091, “Pyridazine as a privileged structure: An updated review on anticancer activity of pyridazine containing bioactive molecules” (Eur J Med Chem, 2021)
pIC50: −log10 of the molar value. In brackets after ≈: the same amount, converted by molar mass. Each block holds one compound with its values, some of them ahead of it.

Key:
[1] = test system: HUVEC; test: Antiproliferative activity against VEGF-stimulated human HUVEC cells assessed as cell growth inhibition at 10 uM incubated for 72 hrs by resazurin dye based AlamarBlue assay relative to control; assay type: functional
[2] = biological target: Protein deacetylase HDAC6 (Homo sapiens, UniProt Q9UBN7); test: Inhibition of HDAC6 (unknown origin) measured after 15 mins by fluorescence based assay
[3] = biological target: T1, Poly [ADP-ribose] polymerase 1 (Homo sapiens, UniProt P09874); test: Inhibition of PARP1 (unknown origin) by colorimetric assay
[4] = biological target: T1, Poly [ADP-ribose] polymerase 1; test: Inhibition of PARP1 (unknown origin) incubated for 30 mins by ELISA assay
[5] = test system: HepG2; test: Antiproliferative activity against human HepG2 cells assessed as inhibition of cell growth measured after 48 hrs by MTT assay; assay type: functional, cell-based; conditions: HepG2, 48 h
[6] = test system: MCF7; test: Antiproliferative activity against human MCF7 cells assessed as cell growth inhibition measured after 48 hrs by MTT assay; assay type: functional, cell-based; conditions: MCF7, 48 h
[7] = test system: MDA-MB-436; test: Antiproliferative activity against human MDA-MB-436 cells assessed as cell growth inhibition measured after 72 hrs by MTT assay; assay type: functional, cell-based; conditions: MDA-MB-436, 72 h
[8] = test system: SR; test: Cytotoxicity against human SR cells assessed as cell growth inhibition measured after 48 hrs by SRB assay; assay type: functional
[9] = test system: SW-620; test: Cytotoxicity against human SW-620 cells assessed as cell growth inhibition measured after 48 hrs by SRB assay; assay type: functional
[10] = test system: MDA-MB-468; test: Cytotoxicity against human MDA-MB-468 cells assessed as cell growth inhibition measured after 48 hrs by SRB assay; assay type: functional
[11] = test system: SF-295; test: Cytotoxicity against human SF-295 cells assessed as cell growth inhibition measured after 48 hrs by SRB assay; assay type: functional
[12] = test system: HCT-15; test: Cytotoxicity against human HCT-15 cells assessed as cell growth inhibition measured after 48 hrs by SRB assay; assay type: functional
[13] = test system: MCF7; test: Cytotoxicity against human MCF7 cells assessed as cell growth inhibition measured after 48 hrs by SRB assay; assay type: functional
[14] = test system: A498; test: Cytotoxicity against human A498 cells assessed as cell growth inhibition measured after 48 hrs by SRB assay; assay type: functional
[15] = test system: OVCAR-3; test: Cytotoxicity against human OVCAR-3 cells assessed as cell growth inhibition measured after 48 hrs by SRB assay; assay type: functional
[16] = test system: UACC-62; test: Cytotoxicity against human UACC-62 cells assessed as cell growth inhibition measured after 48 hrs by SRB assay; assay type: functional
[17] = test system: KM12; test: Cytotoxicity against human KM12 cells assessed as cell growth inhibition measured after 48 hrs by SRB assay; assay type: functional
[18] = test system: SK-MEL-5; test: Cytotoxicity against human SK-MEL-5 cells assessed as cell growth inhibition measured after 48 hrs by SRB assay; assay type: functional
[19] = test system: MDA-MB-435; test: Cytotoxicity against human MDA-MB-435 cells assessed as cell growth inhibition measured after 48 hrs by SRB assay; assay type: functional
[20] = test system: PC-3; test: Cytotoxicity against human PC-3 cells assessed as cell growth inhibition measured after 48 hrs by SRB assay; assay type: functional
[21] = biological target: Epidermal growth factor receptor (Homo sapiens, UniProt P00533); test: Inhibition of EGFR (unknown origin)
[22] = test system: HCT-116; test: Cytotoxicity against human HCT-116 cells assessed as cell growth inhibition; assay type: functional, cell-based
[23] = test system: HaCaT; test: Antiproliferative activity against human HaCaT cells assessed as cell growth inhibition; assay type: functional, cell-based
[24] = test system: MCF7; test: Antiproliferative activity against human MCF7 cells assessed as cell growth inhibition; assay type: functional, cell-based
[25] = test system: MDA-MB-231; test: Antiproliferative activity against human MDA-MB-231 cells assessed as cell growth inhibition; assay type: functional, cell-based
[26] = test system: A549; test: Antiproliferative activity against human A549 cells assessed as cell growth inhibition; assay type: functional, cell-based
[27] = test system: A-375; test: Cytotoxicity against human A-375 cells assessed as cell growth inhibition; assay type: functional, cell-based
[28] = test system: COLO 205; test: Cytotoxicity against human COLO 205 cells assessed as cell growth inhibition; assay type: functional, cell-based
[29] = biological target: Hepatocyte growth factor receptor (Homo sapiens, UniProt P08581); test: Inhibition of c-Met (unknown origin) incubated for 20 to 30 mins in presence of [33P]-ATP by scintillation counter analysis
[30] = test system: CCRF-SB; test: Cytotoxicity against human CCRF-SB cells assessed as cell growth inhibition measured after 48 hrs by MTT assay; assay type: functional, cell-based
[31] = test system: NALM-6; test: Cytotoxicity against human NALM-6 cells assessed as cell growth inhibition measured after 48 hrs by MTT assay; assay type: functional, cell-based; conditions: NALM-6, 48 h
[32] = test system: MCF7; test: Cytotoxicity against human MCF7 cells assessed as cell growth inhibition measured after 48 hrs by MTT assay; assay type: functional, cell-based; conditions: MCF7, 48 h
[33] = test system: TMD8; test: Cytotoxicity against human TMD8 cells assessed as cell growth inhibition measured after 72 hrs by WST-1 assay; assay type: functional, cell-based; conditions: TMD8, 72 h
[34] = biological target: Tyrosine-protein kinase BTK (Homo sapiens, UniProt Q06187); test: Inhibition of BTK (unknown origin) incubated for 30 mins in presence of ATP by fluorescence based analysis
[35] = test system: IMR-32; test: Cytotoxicity against human IMR-32 cells assessed as cell growth inhibition; assay type: functional, cell-based
[36] = test system: K562; test: Antiproliferative activity against human K562 cells assessed as cell growth inhibition; assay type: functional
[37] = test system: PC-3; test: Antiproliferative activity against human PC3 cells assessed as cell growth inhibition; assay type: functional
[38] = test system: MDA-MB-231; test: Potency index, ratio of 5-Fu IC50 to compound IC50 for antiproliferative activity against human MDA-MB-231 cells assessed as cell growth inhibition measured after 48 hrs by WST-1 assay; assay type: functional
[39] = test system: MDA-MB-231; test: Antiproliferative activity against human MDA-MB-231 cells assessed as cell growth inhibition measured after 48 hrs by WST-1 assay; assay type: functional, cell-based; conditions: MDA-MB-231, 48 h
[40] = test system: MDA-MB-231; test: Cytotoxicity against human MDA-MB-231 cells assessed as cell growth inhibition measured after 48 to 72 hrs by hoechst and PI staining based analysis; assay type: functional; conditions: time 48-72 hrs
[41] = Cytotoxicity against human CEM cells assessed as cell growth inhibition measured after 48 to 72 hrs by hoechst and PI staining based analysis; assay type: toxicity; conditions: CCRF-CEM cells, time 48-72 hrs
[42] = test system: SH-SY5Y; test: Anticancer activity against human SH-SY5Y cells assessed as cell growth inhibition measured upto 72 hrs by MTS assay; assay type: functional, cell-based
[43] = test system: Hep 3B2; test: Anticancer activity against human Hep3B cells assessed as cell growth inhibition measured upto 72 hrs by MTS assay; assay type: functional, cell-based

T1 sequence (P09874 whole entry): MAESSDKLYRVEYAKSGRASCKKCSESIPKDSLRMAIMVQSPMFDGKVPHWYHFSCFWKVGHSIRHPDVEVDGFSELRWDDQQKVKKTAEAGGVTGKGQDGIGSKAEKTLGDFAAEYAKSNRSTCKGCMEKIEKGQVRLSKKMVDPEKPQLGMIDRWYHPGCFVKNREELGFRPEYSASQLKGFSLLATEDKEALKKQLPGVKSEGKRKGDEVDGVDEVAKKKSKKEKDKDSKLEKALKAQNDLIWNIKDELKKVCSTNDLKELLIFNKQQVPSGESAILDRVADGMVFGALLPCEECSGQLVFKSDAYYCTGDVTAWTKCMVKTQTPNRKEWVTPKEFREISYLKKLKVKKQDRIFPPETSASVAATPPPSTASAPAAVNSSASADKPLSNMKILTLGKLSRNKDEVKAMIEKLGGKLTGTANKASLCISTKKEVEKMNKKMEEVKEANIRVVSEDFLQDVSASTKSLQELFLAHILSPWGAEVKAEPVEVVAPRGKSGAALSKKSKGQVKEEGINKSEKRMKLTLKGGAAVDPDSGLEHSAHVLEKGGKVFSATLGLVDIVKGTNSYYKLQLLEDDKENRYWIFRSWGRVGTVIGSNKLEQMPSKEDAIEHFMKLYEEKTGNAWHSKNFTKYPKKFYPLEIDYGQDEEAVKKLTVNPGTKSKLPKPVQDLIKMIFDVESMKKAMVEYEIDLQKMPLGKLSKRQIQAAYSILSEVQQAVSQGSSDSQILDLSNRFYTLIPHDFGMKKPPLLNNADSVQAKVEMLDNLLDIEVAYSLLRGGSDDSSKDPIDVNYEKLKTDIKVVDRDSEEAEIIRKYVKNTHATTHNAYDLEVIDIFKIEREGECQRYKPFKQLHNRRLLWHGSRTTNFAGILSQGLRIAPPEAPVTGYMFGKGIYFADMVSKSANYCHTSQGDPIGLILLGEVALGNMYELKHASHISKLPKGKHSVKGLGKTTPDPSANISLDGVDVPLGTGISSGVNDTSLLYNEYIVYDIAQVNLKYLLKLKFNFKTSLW
Chain of Tyrosine-protein kinase BTK (Q06187 whole entry): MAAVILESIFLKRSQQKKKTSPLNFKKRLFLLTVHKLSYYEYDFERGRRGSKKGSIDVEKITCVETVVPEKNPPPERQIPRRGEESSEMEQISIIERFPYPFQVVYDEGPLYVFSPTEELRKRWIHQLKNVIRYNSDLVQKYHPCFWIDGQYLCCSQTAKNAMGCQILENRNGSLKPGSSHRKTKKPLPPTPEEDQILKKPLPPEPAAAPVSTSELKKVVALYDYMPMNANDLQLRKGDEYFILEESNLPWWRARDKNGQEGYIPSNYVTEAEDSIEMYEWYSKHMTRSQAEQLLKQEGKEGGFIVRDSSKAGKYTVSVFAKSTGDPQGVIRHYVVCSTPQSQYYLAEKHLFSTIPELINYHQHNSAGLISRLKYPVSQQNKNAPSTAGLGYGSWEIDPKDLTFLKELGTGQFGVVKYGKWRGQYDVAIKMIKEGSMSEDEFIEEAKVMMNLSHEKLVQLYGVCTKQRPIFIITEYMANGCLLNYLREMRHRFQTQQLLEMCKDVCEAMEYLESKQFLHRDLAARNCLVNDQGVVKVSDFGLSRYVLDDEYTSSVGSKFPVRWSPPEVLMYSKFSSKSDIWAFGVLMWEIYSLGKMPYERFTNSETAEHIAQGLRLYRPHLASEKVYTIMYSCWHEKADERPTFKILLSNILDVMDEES
Chain of Epidermal growth factor receptor (P00533 whole entry): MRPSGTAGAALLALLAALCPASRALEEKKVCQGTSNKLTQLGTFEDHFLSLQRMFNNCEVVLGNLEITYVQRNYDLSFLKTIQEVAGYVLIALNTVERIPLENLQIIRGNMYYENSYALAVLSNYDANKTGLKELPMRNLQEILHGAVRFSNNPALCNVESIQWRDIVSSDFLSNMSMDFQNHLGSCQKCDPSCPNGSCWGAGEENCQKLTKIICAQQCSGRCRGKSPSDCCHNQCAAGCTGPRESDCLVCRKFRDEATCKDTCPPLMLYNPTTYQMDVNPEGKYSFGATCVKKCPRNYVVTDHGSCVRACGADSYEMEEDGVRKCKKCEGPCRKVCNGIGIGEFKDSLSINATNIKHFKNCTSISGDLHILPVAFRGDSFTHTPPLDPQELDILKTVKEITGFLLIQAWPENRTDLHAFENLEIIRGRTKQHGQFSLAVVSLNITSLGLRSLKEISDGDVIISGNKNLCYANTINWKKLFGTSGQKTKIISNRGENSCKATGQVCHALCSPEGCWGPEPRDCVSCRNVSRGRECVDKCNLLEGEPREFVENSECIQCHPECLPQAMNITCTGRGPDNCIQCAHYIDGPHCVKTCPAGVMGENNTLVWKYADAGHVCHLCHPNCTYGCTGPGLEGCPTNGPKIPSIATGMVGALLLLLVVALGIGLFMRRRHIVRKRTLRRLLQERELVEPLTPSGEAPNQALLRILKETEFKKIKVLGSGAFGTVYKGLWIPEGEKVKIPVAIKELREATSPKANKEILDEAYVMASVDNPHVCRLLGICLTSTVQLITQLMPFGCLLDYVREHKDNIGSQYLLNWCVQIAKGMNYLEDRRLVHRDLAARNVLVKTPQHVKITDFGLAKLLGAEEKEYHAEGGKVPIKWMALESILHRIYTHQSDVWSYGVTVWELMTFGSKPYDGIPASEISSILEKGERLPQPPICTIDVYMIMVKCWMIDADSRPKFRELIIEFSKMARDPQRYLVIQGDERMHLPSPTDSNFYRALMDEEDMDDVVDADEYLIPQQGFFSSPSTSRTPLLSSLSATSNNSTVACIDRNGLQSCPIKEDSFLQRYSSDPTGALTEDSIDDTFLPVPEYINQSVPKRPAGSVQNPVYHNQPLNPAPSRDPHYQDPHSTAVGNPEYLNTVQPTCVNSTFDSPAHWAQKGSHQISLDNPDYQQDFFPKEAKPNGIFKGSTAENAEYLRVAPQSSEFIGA
Chain of Protein deacetylase HDAC6 (Q9UBN7 whole entry): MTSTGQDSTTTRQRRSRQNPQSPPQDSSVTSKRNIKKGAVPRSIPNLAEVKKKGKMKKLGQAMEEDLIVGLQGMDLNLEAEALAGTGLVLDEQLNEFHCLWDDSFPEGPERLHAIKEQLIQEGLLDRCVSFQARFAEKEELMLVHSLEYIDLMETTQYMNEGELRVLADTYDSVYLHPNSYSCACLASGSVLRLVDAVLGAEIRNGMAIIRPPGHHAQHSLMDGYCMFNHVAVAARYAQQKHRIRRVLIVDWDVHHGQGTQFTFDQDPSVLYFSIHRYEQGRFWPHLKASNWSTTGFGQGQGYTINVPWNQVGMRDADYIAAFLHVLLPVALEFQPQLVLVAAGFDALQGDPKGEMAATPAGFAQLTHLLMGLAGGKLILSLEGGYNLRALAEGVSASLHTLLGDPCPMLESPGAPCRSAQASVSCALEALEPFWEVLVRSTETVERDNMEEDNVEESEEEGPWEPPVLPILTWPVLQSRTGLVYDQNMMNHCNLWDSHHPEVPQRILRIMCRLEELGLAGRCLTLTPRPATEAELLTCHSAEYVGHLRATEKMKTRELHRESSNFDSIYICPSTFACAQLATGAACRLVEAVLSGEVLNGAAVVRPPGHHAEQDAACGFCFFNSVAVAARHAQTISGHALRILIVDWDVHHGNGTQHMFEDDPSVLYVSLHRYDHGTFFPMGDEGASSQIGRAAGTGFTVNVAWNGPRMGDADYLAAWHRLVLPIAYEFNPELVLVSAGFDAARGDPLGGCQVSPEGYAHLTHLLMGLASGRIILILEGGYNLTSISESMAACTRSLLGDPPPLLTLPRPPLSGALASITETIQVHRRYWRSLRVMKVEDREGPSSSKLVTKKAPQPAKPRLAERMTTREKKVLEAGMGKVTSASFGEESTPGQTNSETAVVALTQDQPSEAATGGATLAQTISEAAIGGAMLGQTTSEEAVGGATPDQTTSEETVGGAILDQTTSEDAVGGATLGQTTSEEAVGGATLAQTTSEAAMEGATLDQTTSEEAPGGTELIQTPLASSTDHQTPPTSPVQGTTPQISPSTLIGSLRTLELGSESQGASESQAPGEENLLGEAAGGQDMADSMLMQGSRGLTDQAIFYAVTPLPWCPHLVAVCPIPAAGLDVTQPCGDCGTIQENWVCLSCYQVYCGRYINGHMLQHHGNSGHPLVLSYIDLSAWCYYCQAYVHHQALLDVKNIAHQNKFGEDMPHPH

Structure (SMILES): O=C(Nc1ccc(Oc2nnc(Cl)c3ccccc23)cc1)Nc1ccc(Cl)c(C(F)(F)F)c1
inhibition at 10 µM [1]: 71.6%

Structure (SMILES): O=c1[nH]nc(-c2nnc(S)o2)c2ccccc12
pIC50 [5]: 5.35 | pIC50 [6]: 5.31

Structure (SMILES): CCOC(=O)c1cc(C(=O)c2cc(OC)c(OC)c(OC)c2)n2nc(C)ccc12
GI50 [8]: 48.1 nM | GI50 [9]: < 100 nM | GI50 [10]: < 100 nM | GI50 [11]: < 100 nM | GI50 [12]: < 100 nM | GI50 [13]: 48.1 nM | GI50 [14]: < 100 nM | GI50 [15]: < 100 nM | GI50 [16]: < 100 nM | GI50 [17]: < 100 nM | GI50 [18]: < 100 nM | GI50 [19]: 25.6 nM | GI50 [20]: < 100 nM

Structure (SMILES): N=C(N)NS(=O)(=O)c1ccc(Nc2ccc3nc4ccccc4c(=O)n3n2)cc1
pIC50 [22]: 4.92

Structure (SMILES): COc1ccc(-c2nc(N3N=C(c4ccc(F)cc4)CCC3=O)n(C)c(=O)c2C#N)cc1
pIC50 [23]: < 4.30 | pIC50 [24]: 5.46 | pIC50 [25]: 5.59

Structure (SMILES): CC(C)[Si](C#Cc1cc(-n2cc(Cn3nc(-c4ccccc4)cc(-c4ccccc4)c3=O)nn2)cc(C#C[Si](C(C)C)(C(C)C)C(C)C)n1)(C(C)C)C(C)C
IC50 [24]: 3.25 µg/mL | IC50 [26]: 5 µg/mL (≈ 6.52 µM)

Structure (SMILES): O=C(NC(Cc1c[nH]c2ccccc12)C1C(=O)N=C2C=CC=NN21)c1ccccc1 (centres undefined)
pIC50 [27]: 7.85 | pIC50 [28]: 7.68

Structure (SMILES): O=C(O)c1ccccc1Nc1ccc2nnc(-c3ccncc3)n2n1
pIC50 [29]: 3.97

Structure (SMILES): Clc1ccc2nnc(-c3c[nH]c4ccccc34)n2n1
pIC50 [30]: 5.79 | pIC50 [31]: 5.94 | pIC50 [32]: 5.45

Structure (SMILES): CC(C)Nc1ccc2nnc(-c3cc(-c4cnn(C5CCN(CCO)CC5)c4)cnc3N)n2n1
pIC50 [33]: 6.10 | pIC50 [34]: 7.48

Structure (SMILES): Cc1n[nH]c(=O)c2c1c1cc(F)ccc1n2Cc1cn(C2CCCCC2)nn1
pIC50 [35]: 7.40

Structure (SMILES): CC1(C)CC(=O)C2=C(C1)n1c(=O)c3ccccc3c(=O)n1C2
GI50 [36]: 9400 nM | GI50 [37]: 5300 nM

Structure (SMILES): O=c1c(Cl)c(Cl)cnn1-c1ccc(Cl)c(C(F)(F)F)c1
CC50 [40]: 2630 nM | CC50 [41]: 330 nM

Now from value to compound, other results behind:

pIC50 [2]: 7.24 | pIC50 [3]: 8.15
Structure (SMILES): O=C(/C=C/c1ccc(CCCCCCc2n[nH]c(=O)c3cc(F)ccc23)cc1)NO

pIC50 [4]: 7.34
Structure (SMILES): O=C(Nc1nc(-c2ccccc2)cs1)c1ccc(Cc2n[nH]c(=O)c3cccnc23)cc1

pIC50 [7]: 4.93
Structure (SMILES): O=C(/C=C/c1cccc([N+](=O)[O-])c1)N1CCN(C(=O)c2cc(Cc3n[nH]c(=O)c4ccccc34)ccc2F)CC1

pIC50 [21]: 9.35
Structure (SMILES): CN(C)c1ccc(/C=N/NC(=O)Cn2nc(Cc3ccc(Cl)cc3)c3ccccc3c2=O)cc1

pIC50 [39]: 4.92
Structure (SMILES): O=C1Nc2ccc(Cl)cc2/C1=N/Nc1nnc(-c2ccc(Cl)cc2)c2ccccc12
Ratio IC50 [38]: 2.4

pIC50 [42]: 4.63
Structure (SMILES): Cc1cccc(/C=N/NC(=O)Cn2nc(N3CCN(c4ccc(Cl)cc4)CC3)ccc2=O)c1
pIC50 [43]: 4.61
